From the NIST ThermoML archive (doi:10.1016/j.fluid.2015.05.026)
Where “and” joins values, the source holds several entries; their conditions need not be identical. Identical values can stand only once. Numbers after ± are expanded uncertainties.

Legend:
[1] = molar heat capacity at constant pressure; conditions: 101.33 kPa, Liquid, Large sample (1 g) DSC
[2] = Liquid, Closed cell (Static) method

Row | SMILES | molar heat capacity at constant pressure ([1]; 265 K) [J/K/mol] | molar heat capacity at constant pressure ([1]; 270 K) [J/K/mol] | molar heat capacity at constant pressure ([1]; 275 K) [J/K/mol] | molar heat capacity at constant pressure ([1]; 280 K) [J/K/mol] | molar heat capacity at constant pressure ([1]; 285 K) [J/K/mol] | molar heat capacity at constant pressure ([1]; 290 K) [J/K/mol] | molar heat capacity at constant pressure ([1]; 295 K) [J/K/mol] | molar heat capacity at constant pressure ([1]; 300 K) [J/K/mol] | molar heat capacity at constant pressure ([1]; 305 K) [J/K/mol] | vapor or sublimation pressure ([2]; 253.15 K) | vapor or sublimation pressure ([2]; 258.15 K) | vapor or sublimation pressure ([2]; 263.15 K) | vapor or sublimation pressure ([2]; 268.15 K) | vapor or sublimation pressure ([2]; 278.15 K) | vapor or sublimation pressure ([2]; 283.15 K) | vapor or sublimation pressure ([2]; 288.15 K) | vapor or sublimation pressure ([2]; 293.15 K) | vapor or sublimation pressure ([2]; 298.15 K) | vapor or sublimation pressure ([2]; 303.15 K) | vapor or sublimation pressure ([2]; 308.15 K) | further results
1 | C=CC(O)CCC (configuration not stated) [1-hexen-3-ol] | 235.9 ± 5.8 | 241 ± 5.9 | 246 ± 6 | 250.8 ± 6.1 | 255.5 ± 6.3 | 260.1 ± 6.4 | 264.8 ± 6.5 | 269.3 ± 6.6 | 273.6 ± 6.7 | 0.007373 ± 0.00033 kPa and 0.007376 ± 0.00033 kPa | 0.01269 ± 0.00052 kPa and 0.0127 ± 0.0005 kPa and 0.01271 ± 0.00052 kPa | 0.0214 ± 0.0007 kPa and 0.02141 ± 0.00067 kPa | 0.03517 ± 0.00091 kPa and 0.03518 ± 0.00091 kPa | 0.08933 ± 0.0019 kPa and 0.08939 ± 0.0019 kPa | 0.1383 ± 0.0025 kPa and 0.1384 ± 0.0025 kPa | 0.2097 ± 0.0033 kPa and 0.2098 ± 0.0033 kPa | 0.3122 ± 0.0046 kPa and 0.3123 ± 0.0046 kPa | 0.4574 ± 0.0064 kPa and 0.4576 ± 0.0064 kPa | 0.6587 ± 0.0089 kPa and 0.6589 ± 0.0089 kPa | 0.9353 ± 0.012 kPa and 0.9355 ± 0.012 kPa | molar heat capacity at constant pressure ([1]; 310 K): 277.6 ± 6.8 J/K/mol; molar heat capacity at constant pressure ([1]; 315 K): 281.6 ± 6.9 J/K/mol; molar heat capacity at constant pressure ([1]; 320 K): 285.4 ± 7 J/K/mol; molar heat capacity at constant pressure ([1]; 325 K): 289.1 ± 7.1 J/K/mol; molar heat capacity at constant pressure ([1]; 330 K): 292.5 ± 7.2 J/K/mol; molar heat capacity at constant pressure ([1]; 335 K): 295.4 ± 7.2 J/K/mol; molar heat capacity at constant pressure ([1]; 340 K): 298.2 ± 7.3 J/K/mol; molar heat capacity at constant pressure ([1]; 345 K): 301.2 ± 7.4 J/K/mol; molar heat capacity at constant pressure ([1]; 350 K): 303.8 ± 7.4 J/K/mol; molar heat capacity at constant pressure ([1]; 354.7 K): 305.5 ± 7.5 J/K/mol; vapor or sublimation pressure ([2]; 238.2 K): 0.001239 ± 0.00015 kPa and 0.001245 ± 0.00015 kPa and 0.001252 ± 0.00015 kPa; vapor or sublimation pressure ([2]; 243.15 K): 0.002307 ± 0.00017 kPa and 0.002309 ± 0.00017 kPa and 0.00231 ± 0.00017 kPa; vapor or sublimation pressure ([2]; 248.15 K): 0.004181 ± 0.00022 kPa; vapor or sublimation pressure ([2]; 248.2 K): 0.004188 ± 0.00022 kPa and 0.004193 ± 0.00022 kPa; vapor or sublimation pressure ([2]; 273.15 K): 0.05668 ± 0.0013 kPa and 0.05669 ± 0.0013 kPa and 0.05671 ± 0.0013 kPa
2 | CCC/C=C/CO [(E)-2-hexen-1-ol] | 211.9 ± 5.2 | 215.1 ± 5.3 | 218.4 ± 5.4 | 221.9 ± 5.4 | 225.4 ± 5.5 | 229.2 ± 5.6 | 233.3 ± 5.7 | 237.2 ± 5.8 | 241.3 ± 5.9 | 0.001399 ± 0.00015 kPa and 0.001397 ± 0.00015 kPa | 0.002485 ± 0.00018 kPa and 0.002492 ± 0.00018 kPa and 0.002493 ± 0.00018 kPa | 0.004314 ± 0.00023 kPa and 0.004317 ± 0.00023 kPa and 0.004318 ± 0.00023 kPa | 0.007304 ± 0.00033 kPa and 0.00731 ± 0.00033 kPa and 0.007315 ± 0.00033 kPa | 0.01974 ± 0.00065 kPa and 0.01975 ± 0.00065 kPa | 0.03147 ± 0.00086 kPa and 0.03148 ± 0.00086 kPa | 0.04923 ± 0.0012 kPa and 0.04926 ± 0.0012 kPa and 0.04927 ± 0.0012 kPa | 0.07568 ± 0.0017 kPa and 0.07569 ± 0.0017 kPa | 0.1143 ± 0.0024 kPa | 0.1699 ± 0.0029 kPa | 0.2483 ± 0.004 kPa and 0.2484 ± 0.004 kPa | molar heat capacity at constant pressure ([1]; 310 K): 245.3 ± 6 J/K/mol; molar heat capacity at constant pressure ([1]; 315 K): 249.5 ± 6.1 J/K/mol; molar heat capacity at constant pressure ([1]; 320 K): 253.6 ± 6.2 J/K/mol; molar heat capacity at constant pressure ([1]; 325 K): 257.8 ± 6.3 J/K/mol; molar heat capacity at constant pressure ([1]; 330 K): 261.9 ± 6.4 J/K/mol; molar heat capacity at constant pressure ([1]; 335 K): 265.6 ± 6.5 J/K/mol; molar heat capacity at constant pressure ([1]; 340 K): 269.5 ± 6.6 J/K/mol; molar heat capacity at constant pressure ([1]; 345 K): 273.3 ± 6.7 J/K/mol; molar heat capacity at constant pressure ([1]; 350 K): 276.9 ± 6.8 J/K/mol; molar heat capacity at constant pressure ([1]; 355 K): 280.1 ± 6.9 J/K/mol; vapor or sublimation pressure ([2]; 238.15 K): 0.000207 ± 0.00013 kPa and 0.00021 ± 0.00013 kPa and 0.000211 ± 0.00013 kPa; vapor or sublimation pressure ([2]; 243.15 K): 0.000404 ± 0.00013 kPa and 0.000406 ± 0.00013 kPa and 0.000407 ± 0.00013 kPa; vapor or sublimation pressure ([2]; 248.15 K): 0.000768 ± 0.00014 kPa and 0.000772 ± 0.00014 kPa; vapor or sublimation pressure ([2]; 273.15 K): 0.01214 ± 0.0005 kPa; vapor or sublimation pressure ([2]; 273.65 K): 0.01275 ± 0.00052 kPa and 0.01276 ± 0.00052 kPa
3 | CC/C=C\CCO [(Z)-3-hexen-1-ol] | 206.7 ± 5.1 | 210.2 ± 5.1 | 213.9 ± 5.2 | 217.6 ± 5.3 | 221.4 ± 5.4 | 225.4 ± 5.5 | 229.7 ± 5.6 | 234 ± 5.7 | 238.2 ± 5.8 | 0.001923 ± 0.00016 kPa and 0.001926 ± 0.00016 kPa and 0.001921 ± 0.00016 kPa | 0.003383 ± 0.0002 kPa and 0.003393 ± 0.0002 kPa and 0.003395 ± 0.0002 kPa | 0.005802 ± 0.00028 kPa and 0.005803 ± 0.00028 kPa and 0.005805 ± 0.00028 kPa | 0.009727 ± 0.00041 kPa and 0.009728 ± 0.00041 kPa and 0.009737 ± 0.00041 kPa | 0.02561 ± 0.00074 kPa and 0.02562 ± 0.00074 kPa and 0.02563 ± 0.00074 kPa | 0.04036 ± 0.001 kPa and 0.04037 ± 0.001 kPa | 0.06241 ± 0.0014 kPa and 0.06244 ± 0.0014 kPa | 0.09491 ± 0.002 kPa and 0.09494 ± 0.002 kPa and 0.09496 ± 0.002 kPa | 0.142 ± 0.0025 kPa | 0.2089 ± 0.0033 kPa and 0.209 ± 0.0033 kPa | 0.3032 ± 0.0044 kPa and 0.3034 ± 0.0044 kPa | molar heat capacity at constant pressure ([1]; 310 K): 242.4 ± 5.9 J/K/mol; molar heat capacity at constant pressure ([1]; 315 K): 246.7 ± 6 J/K/mol; molar heat capacity at constant pressure ([1]; 320 K): 250.9 ± 6.1 J/K/mol; molar heat capacity at constant pressure ([1]; 325 K): 255.2 ± 6.3 J/K/mol; molar heat capacity at constant pressure ([1]; 330 K): 259.2 ± 6.3 J/K/mol; molar heat capacity at constant pressure ([1]; 335 K): 263.1 ± 6.4 J/K/mol; molar heat capacity at constant pressure ([1]; 340 K): 266.8 ± 6.5 J/K/mol; molar heat capacity at constant pressure ([1]; 345 K): 270.8 ± 6.6 J/K/mol; molar heat capacity at constant pressure ([1]; 350 K): 274.6 ± 6.7 J/K/mol; molar heat capacity at constant pressure ([1]; 355 K): 277.8 ± 6.8 J/K/mol; vapor or sublimation pressure ([2]; 238.15 K): 0.000301 ± 0.00013 kPa and 0.000303 ± 0.00013 kPa and 0.000304 ± 0.00013 kPa; vapor or sublimation pressure ([2]; 243.15 K): 0.000577 ± 0.00014 kPa and 0.000579 ± 0.00014 kPa and 0.00058 ± 0.00014 kPa; vapor or sublimation pressure ([2]; 248.15 K): 0.001062 ± 0.00014 kPa and 0.001066 ± 0.00014 kPa and 0.001069 ± 0.00014 kPa; vapor or sublimation pressure ([2]; 273.65 K): 0.01674 ± 0.00059 kPa
4 | CCCCCCO [hexan-1-ol] | – | – | – | – | – | – | – | – | – | 0.001054 ± 0.00015 kPa and 0.001051 ± 0.00015 kPa and 0.001057 ± 0.00015 kPa | 0.001918 ± 0.00016 kPa and 0.001915 ± 0.00016 kPa and 0.00192 ± 0.00016 kPa | 0.003393 ± 0.0002 kPa and 0.003385 ± 0.0002 kPa | 0.005838 ± 0.00028 kPa and 0.005843 ± 0.00028 kPa and 0.005839 ± 0.00028 kPa | 0.01629 ± 0.00058 kPa and 0.0163 ± 0.0006 kPa | 0.02639 ± 0.00076 kPa and 0.02642 ± 0.00076 kPa | 0.04189 ± 0.001 kPa and 0.0419 ± 0.001 kPa | 0.06536 ± 0.0014 kPa and 0.06537 ± 0.0014 kPa | 0.1001 ± 0.0021 kPa | 0.1505 ± 0.0026 kPa | 0.223 ± 0.004 kPa and 0.223 ± 0.0035 kPa and 0.2231 ± 0.0035 kPa | vapor or sublimation pressure ([2]; 237.95 K): 0.000143 ± 0.00013 kPa; vapor or sublimation pressure ([2]; 238 K): 0.000143 ± 0.00013 kPa and 0.000145 ± 0.00013 kPa; vapor or sublimation pressure ([2]; 243.2 K): 0.000296 ± 0.00013 kPa; vapor or sublimation pressure ([2]; 243.25 K): 0.000293 ± 0.00013 kPa; vapor or sublimation pressure ([2]; 248.2 K): 0.000569 ± 0.00014 kPa and 0.00056 ± 0.00014 kPa and 0.000564 ± 0.00014 kPa; vapor or sublimation pressure ([2]; 273.15 K): 0.009866 ± 0.00042 kPa and 0.009857 ± 0.00042 kPa; vapor or sublimation pressure ([2]; 273.65 K): 0.01039 ± 0.00044 kPa
